Where a name gives a salt, the structure may show the parent alone. Read-outs that look alike come from different tables or passages of the source.
Tests used:
[1] = molecular target: muscarinic receptors (rat cerebral cortex); type: binding, Hooded Lister rats; conditions: 0.27 nM 3H-QNB, 37° C., 30 min
[2] = molecular target: muscarinic receptors (rat cerebral cortex); assay: Radio ligand binding: displacement of the muscarinic agonist 3H-OXO-M (3H-Oxotremorine-M); parameters: species or system Hooded Lister rats; conditions: 2 nM 3H-OXO-M, 2 mM magnesium chloride, 37° C., 30 min

| Structure (SMILES) | IC50 [1] [µM] | IC50 [2] [nM] |
| --- | --- | --- |
| COC(=O)C1=CC2CCCN(C1)C2 (racemic) [E8, (±) Methyl 1-azabicyclo[3.3.1]non-3-en-3-yl carboxylate hydrochloride] | 4.1 | 118 |
| CC(=O)O[C@@H]1C[C@H]2CCCN(C2)C1 (relative stereo) [E1, (±) exo-1-Azabicyclo[3.3.1]non-3-yl acetate hydrochloride] | 3.9 | 81 |
| CCO[C@@H]1C[C@H]2CCCN(C2)C1 (relative stereo) [E2, (±) exo-3-Ethoxy-1-azabicyclo[3.3.1]nonane oxalate] | 6.5 | 210 |
| NC(=O)O[C@@H]1C[C@H]2CCCN(C2)C1 (relative stereo) [E3, (±) exo-1-Azabicyclo[3.3.1]non-3-yl carbamate hydrochloride] | 36 | 103 |
| COC(=O)[C@@H]1C[C@H]2CCCN(C2)C1 (relative stereo) [E4, (±) exo-Methyl 1-azabicyclo[3.3.1]non-3-yl carboxylate oxalate] | 3.9 | 81 |
| COC(=O)[C@@H]1C[C@H]2CCCCN(C2)C1 (relative stereo) [E5, (±) exo-Methyl 1-azabicyclo[4.3.1]dec-8-yl carboxylate oxalate] | 3.2 | 153 |
| CC(=O)O[C@H]1CN2CCC[C@H]1C2 (relative stereo) [E6, (±) exo-1-Azabicyclo[3.2.1]oct-6-yl acetate hydrochloride] | 27 | 82 |
| COC(=O)[C@H]1CN2CCC[C@H]1C2 (relative stereo) [E7, (±) exo-Methyl 1-azabicyclo[3.2.1]oct-6-yl carboxylate hydrochloride] | 65 | 510 |
| COC[C@@H]1C[C@H]2CCCN(C2)C1 (relative stereo) [E9, (±) exo-3-Methoxymethyl-1-azabicyclo[3.3.1]nonane oxalate salt] | 38 | 1300 |
| C#CCOC(=O)[C@@H]1C[C@H]2CCCN(C2)C1 (relative stereo) [E10, (±) exo-Propargyl 1-azabicyclo[3.3.1]non-3-yl-carboxylate oxylate salt] | 0.51 | 40 |
| CNC(=O)O[C@@H]1C[C@H]2CCCN(C2)C1 (relative stereo) [E11, (±) exo-1-Azabicyclo[3.3.1]non-3-yl-N-methylcarbamate hydrochloride salt] | 5.2 | 460 |
| CC(=O)O[C@H]1CN2CC[C@H]1C2 (relative stereo) [E12, (±) exo-1-Azabicyclo[2.2.1]hept-3-yl acetate oxalate salt] | 46 | 175 |
| CCO[C@H]1CN2CC[C@H]1C2 (relative stereo) [E13, (±) exo-3-Ethoxy-1-azabicyclo[2.2.1]heptane oxalate salt] | 54 | 510 |
| CC(=O)O[C@@H]1C[C@H]2CCN(C2)C1 (relative stereo) [E14, (±) exo-1-Azabicyclo[3.2.1]oct-3-yl acetate hydrochloride salt] | 14 | 38 |
| COC(=O)[C@@H]1C[C@H]2CCN(C2)C1 (relative stereo) [E15, (±) exo-Methyl-1-azabicyclo[3.2.1]oct-3-yl carboxylate hydrochloride] | 11 | 80 |
| COC(=O)[C@H]1CN2CC[C@H]1C2 (relative stereo) [E16, (±) exo-Methyl 1-azabicyclo[2.2.1]hept-3-yl carboxylate oxalate salt] | 60 | 190 |
| CCC(=O)O[C@H]1CN2CCC[C@H]1C2 (relative stereo) [E17, (±) exo-1-Azabicyclo[3.2.1]oct-6-yl propionate hydrochloride] | 7.3 | 410 |
| CCCO[C@H]1CN2CCC[C@H]1C2 (relative stereo) [E18, (±) exo-6-n-Propoxy-1-azabicyclo[3.2.1]octane hydrochloride] | 15.5 | 630 |
| CCO[C@H]1CN2CCC[C@H]1C2 (relative stereo) [E19, (±) exo-6-Ethoxy-1-azabicycl9[3.2.1]octane hydrochloride] | 64 | 460 |
| CNC(=O)O[C@H]1CN2CCC[C@H]1C2 (relative stereo) [E20, (±) exo-1-Azabicyclo[3.2.1]oct-6-yl-N-methylcarbamate oxalate salt] | 42 | 1900 |
| CCC(=O)O[C@@H]1C[C@H]2CCCN(C2)C1 (relative stereo) [E21, (±) exo-1-Azabicyclo[3.3.1]non-3-yl propionate hydrochloride salt] | 1 | 367 |
| CO[C@@H]1C[C@H]2CCCN(C2)C1 (relative stereo) [E22, (±) exo-3-Methoxy-1-azabicyclo[3.3.1]nonane oxalate salt] | 170 | 5000 |
| CCCO[C@@H]1C[C@H]2CCCN(C2)C1 (relative stereo) [E23, (±) exo-3-n-Propoxy-1-azabicyclo[3.3.1]nonane oxalate salt] | 1.2 | 160 |
| CN(C)C(=O)O[C@@H]1C[C@H]2CCCN(C2)C1 (relative stereo) [E24, (±) exo-1-Azabicyclo[3.3.1]non-3-yl-N,N-dimetnyl-carbamate hydrochloride] | 1.8 | 255 |
| CCOC(=O)[C@@H]1C[C@H]2CCCN(C2)C1 (relative stereo) [E25, (±) exo-Ethyl 1-azabicyclo[3.3.1]non-3yl carboxylate oxalate salt] | 0.62 | 65 |
